What is called IC50 is the concentration that gives 50% inhibition. Low readings indicate inhibition by little substance, high ones a need for much substance.

Each structure is given as a SMILES string. Structures can show the parent of a compound that is named as a salt.

Chain of kinase domain of IRE1 alpha (His-tagged kinase dead construct KR, AA G547-L977, D688N) (O75460 547-977 D688N): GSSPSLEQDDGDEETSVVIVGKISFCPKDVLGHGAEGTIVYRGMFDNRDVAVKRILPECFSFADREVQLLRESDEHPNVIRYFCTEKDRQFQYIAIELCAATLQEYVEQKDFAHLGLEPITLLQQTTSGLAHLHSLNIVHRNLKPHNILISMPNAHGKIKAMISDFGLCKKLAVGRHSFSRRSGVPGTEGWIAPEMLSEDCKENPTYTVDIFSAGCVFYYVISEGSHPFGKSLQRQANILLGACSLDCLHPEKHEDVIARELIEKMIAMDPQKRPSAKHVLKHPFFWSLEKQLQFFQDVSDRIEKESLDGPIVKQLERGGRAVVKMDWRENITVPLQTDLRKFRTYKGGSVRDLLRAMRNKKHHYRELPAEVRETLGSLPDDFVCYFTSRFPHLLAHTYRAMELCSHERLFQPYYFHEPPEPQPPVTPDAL

The test addresses kinase domain of IRE1 alpha (His-tagged kinase dead construct KR, AA G547-L977, D688N) (Homo sapiens (Human), UniProt O75460, D688N). The experiment in a line: IRE1α TR-FRET competition binding assay. The settings on record: competition with Kinase Tracer 236, 0.1 μM; one hour at room temperature. Summed up:
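Compound displacement of an ATP-site fluorescent tracer (0.1 μM final) measured by TR-FRET after 1 h at room temperature. Protein, a His-tagged D688N kinase/RNase construct from Sf9 cells (0.006 μM final), was pre-bound 1 h at 4° C to Eu anti-His antibody (0.002 μM) in pH 7.5 HEPES buffer.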
For `O=S(=O)(Nc1cccc(Oc2ncccc2-c2ccnc(N[C@H]3CCCNC3)n2)c1F)c1ccccc1Cl` [Compound 141, (S)-2-Chloro-N-(2-fluoro-3-((3-(2-(piperidin-3-ylamino)pyrimidin-4-yl)pyridin-2-yl)oxy)phenyl)benzenesulfonamide hydrochloride], the IC50 came to 17 nM.

On to `O=S(=O)(Cc1ccccc1)Nc1cc(F)c(Oc2ncccc2-c2ccnc(N[C@H]3CCCNC3)n2)cc1F` [Compound 107, (S)-N-(2,5-difluoro-4-((3-(2-(piperidin-3-ylamino)pyrimidin-4-yl)pyridin-2-yl)oxy)phenyl)-1-phenylmethanesulfonamide hydrochloride], for which the IC50 was 5.2 nM.

In turn, `CCCS(=O)(=O)Nc1ccc(Cl)c(Oc2ncccc2-c2ccnc(N[C@H]3CCCNC3)n2)c1F` [Compound 143, (S)—N-(4-Chloro-2-fluoro-3-((3-(2-(piperidin-3-ylamino)pyrimidin-4-yl)pyridin-2-yl)oxy)phenyl)propane-1-sulfonamide hydrochloride] returned an IC50 of 34 nM.

Turning to `CC(C)(C)CCCS(=O)(=O)Nc1ccc(Oc2ncccc2-c2ccnc(N[C@H]3CCCNC3)n2)c(F)c1F` [Compound 230, (S)-N-(2,3-difluoro-4-((3-(2-(piperidin-3-ylamino)pyrimidin-4-yl)pyridin-2-yl)oxy)phenyl)-4,4-dimethylpentane-1-sulfonamide], the IC50 is 14 nM.

Compound `O=C(Nc1ccc(Oc2ncccc2-c2ccnc(N[C@H]3CCCNC3)n2)c(F)c1F)C1CC12CC2` (single isomer, unassigned) [Compound 150, hydrochloride] had an IC50 of 300 nM.

Regarding `CC(F)(F)C1CNCC(Nc2nccc(-c3cccnc3Oc3cc(F)c(NS(=O)(=O)Cc4ccccc4)c(F)c3F)n2)C1` (racemic) [Compound 337, N-(4-((3-(2-((5-(1,1-Difluoroethyl)piperidin-3-yl)amino)pyrimidin-4-yl)pyridin-2-yl)oxy)-2,3,6-trifluorophenyl)-1-phenylmethanesulfonamide hydrochloride], the IC50 came out at 8.9 nM.

Take `C[C@@]1(F)CNC[C@@H](Nc2nccc(-c3cccnc3Oc3cc(F)c(NS(=O)(=O)Cc4ccccc4)c(F)c3F)n2)C1` [Compound 190, 1-Phenyl-N-(2,3,6-trifluoro-4-((3-(2-(((3S,5S)-5-fluoro-5-methyl-3-piperidyl)amino)pyrimidin-4-yl)-2-pyridyl)oxy)phenyl)methanesulfonamide]: the IC50 is 4.7 nM.

Turning to `O=S(=O)(CC1CCC1(F)F)Nc1c(F)cc(Oc2ncccc2-c2ccnc(N[C@@H]3CNC[C@@H](F)C3)n2)c(F)c1F` (single isomer, unassigned) [Compound 264], the IC50 is 1.6 nM.

`O=S(=O)(Cc1ccccc1Cl)Nc1c(F)cc(Oc2ncccc2-c2ccnc(N[C@@H]3CNC[C@@H](F)C3)n2)c(F)c1F` [Compound 352, 1-(2-Chlorophenyl)-N-[2,3,6-trifluoro-4-[[3-[2-[[(3S,5S)-5-fluoro-3-piperidyl]amino]pyrimidin-4-yl]-2-pyridyl]oxy]phenyl]methanesulfonamide] yielded an IC50 of 0.2 nM.

On to `O=S(=O)(Cc1ccc(F)cc1F)Nc1c(F)cc(Oc2ncccc2-c2ccnc(N[C@@H]3CNC[C@H](CF)C3)n2)c(F)c1F` [Compound 320, 1-(2,4-Difluorophenyl)-N-(2,3,6-trifluoro-4-((3-(2-(((3S,5R)-5-(fluoromethyl)piperidin-3-yl)amino)pyrimidin-4-yl)pyridin-2-yl)oxy)phenyl)methanesulfonamide], for which the IC50 is 35 nM.

As to `O=S(=O)(Cc1ccc(Cl)cc1F)Nc1c(F)cc(Oc2ncccc2-c2ccnc(N[C@@H]3CNC[C@@H](F)C3)n2)c(F)c1F` [Compound 364, 1-(4-Chloro-2-fluoro-phenyl)-N-[2,3,6-trifluoro-4-[[3-[2-[[(3S,5S)-5-fluoro-3-piperidyl]amino]pyrimidin-4-yl]-2-pyridyl]oxy]phenyl]methanesulfonamide], the IC50 turned out to be 0.3 nM.

Regarding `Cc1ccc(CS(=O)(=O)Nc2c(F)cc(Oc3ncccc3-c3ccnc(N[C@@H]4CNC[C@@H](F)C4)n3)c(F)c2F)cc1` [Compound 375, 1-p-Tolyl-N-(2,3,6-trifluoro-4-((3-(2-(((3S,5S)-5-fluoropiperidin-3-yl)amino)pyrimidin-4-yl)pyridin-2-yl)oxy)phenyl)methanesulfonamide], the IC50 came to 0.4 nM.

As for `O=S(=O)(CCC1CC1)Nc1c(F)cc(Oc2ncccc2-c2ccnc(N[C@@H]3CNC[C@@H](F)C3)n2)c(F)c1F` [Compound 267, 2-Cyclopropyl-N-(2,3,6-trifluoro-4-((3-(2-(((3S,5S)-5-fluoropiperidin-3-yl)amino)pyrimidin-4-yl)pyridin-2-yl)oxy)phenyl)ethane-1-sulfonamide], the IC50 turned out to be 2.2 nM.

Compound `O=S(=O)(Cc1ccc(C2CC2)cc1)Nc1c(F)cc(Oc2ncccc2-c2ccnc(N[C@@H]3CNC[C@@H](F)C3)n2)c(F)c1F` [Compound 315, 1-(4-Cyclopropylphenyl)-N-(2,3,6-trifluoro-4-((3-(2-(((3S,5S)-5-fluoropiperidin-3-yl)amino)pyrimidin-4-yl)pyridin-2-yl)oxy)phenyl)methanesulfonamide] returned an IC50 of 0.23 nM.

Regarding `C[C@H]1CC[C@H](Nc2nccc(-c3cccnc3Oc3cc(F)c(NS(=O)(=O)Cc4ccccc4)c(F)c3F)n2)CN1` [Compound 257, 1-Phenyl-N-(2,3,6-trifluoro-4-((3-(2-(((3S,6S)-6-methylpiperidin-3-yl)amino)pyrimidin-4-yl)pyridin-2-yl)oxy)phenyl)methanesulfonamide], the IC50 was found to be 24 nM.

On to `CCCS(=O)(=O)Nc1cc(F)c(Oc2ncccc2-c2ccnc(N[C@H]3CC[C@H](N)CC3)n2)c(Cl)c1` [Compound 121, N-(4-((3-(2-(((1r,4r)-4-Aminocyclohexyl)amino)pyrimidin-4-yl)pyridin-2-yl)oxy)-3-chloro-5-fluorophenyl)propane-1-sulfonamide hydrochloride], for which the IC50 was determined as 26 nM.

In the case of `Cc1cc(NS(=O)(=O)Cc2ccccc2)ccc1Oc1ncccc1-c1ccnc(N[C@H]2CCCNC2)n1` [Compound 157, (S)-N-(3-methyl-4-((3-(2-(piperidin-3-ylamino)pyrimidin-4-yl)pyridin-2-yl)oxy)phenyl)-1-phenylmethanesulfonamide], the IC50 stood at 29 nM.

`O=S(=O)(Cc1ccccc1F)Nc1c(Cl)cc(Oc2ncccc2-c2ccnc(N[C@@H]3CNC[C@@H](F)C3)n2)c(F)c1F` [Compound 323, N-(6-Chloro-2,3-difluoro-4-((3-(2-(((3S,5S)-5-fluoropiperidin-3-yl)amino)pyrimidin-4-yl)pyridin-2-yl)oxy)phenyl)-1-(2-fluorophenyl)methanesulfonamide] showed an IC50 of 0.33 nM.

The compound `O=S(=O)(Cc1ccccc1)Nc1c(F)cc(Oc2ncccc2-c2ccnc(N[C@H]3CCCNC3)n2)cc1F` [Compound 152, (S)-N-(2,6-difluoro-4-((3-(2-(piperidin-3-ylamino)pyrimidin-4-yl)pyridin-2-yl)oxy)phenyl)-1-phenylmethanesulfonamide hydrochloride] displayed a concentration for half-maximal inhibition (IC50) of 3.9 nM.

`Cc1c(NS(=O)(=O)c2ccccc2Cl)ccc(Oc2ncccc2-c2ccnc(N[C@H]3CCCNC3)n2)c1C` [Compound 123, (S)-2-Chloro-N-(2,3-dimethyl-4-((3-(2-(piperidin-3-ylamino)pyrimidin-4-yl)pyridin-2-yl)oxy)phenyl)benzenesulfonamide] came in with an IC50 of 50 nM.

Take `O=S(=O)(Cc1c(F)cccc1Cl)Nc1c(F)cc(Oc2ncccc2-c2ccnc(N[C@@H]3CNC[C@@H](F)C3)n2)c(F)c1F` [Compound 367, 1-(2-Chloro-6-fluorophenyl)-N-(2,3,6-trifluoro-4-((3-(2-(((3S,5S)-5-fluoropiperidin-3-yl)amino)pyrimidin-4-yl)pyridin-2-yl)oxy)phenyl)methanesulfonamide]: the IC50 was determined as 0.2 nM.

`O=S(=O)(Nc1ccc(Oc2ncccc2-c2ccnc(N[C@H]3CCCNC3)n2)c(F)c1F)c1cccc(OC(F)(F)F)c1` [Compound 207, (S)-N-(2,3-difluoro-4-((3-(2-(piperidin-3-ylamino)pyrimidin-4-yl)pyridin-2-yl)oxy)phenyl)-3-(trifluoromethoxy)benzenesulfonamide] had a 50% inhibitory concentration (IC50) of 7.4 nM.

The compound `CNCCNc1nccc(-c2cccnc2Oc2ccc(NS(=O)(=O)Cc3ccccc3)c(F)c2F)n1` [Compound 172, N-(2,3-difluoro-4-((3-(2-(2-(methylamino)ethylamino)pyrimidin-4-yl)-2-pyridyl)oxy)phenyl)-1-phenyl-methanesulfonamide] came in with an IC50 of 42 nM.

Take `N#Cc1c(NS(=O)(=O)Cc2ccccc2)ccc(Oc2ncccc2-c2ccnc(N[C@H]3CCCNC3)n2)c1F` [Compound 163, (S)-N-(2-cyano-3-fluoro-4-((3-(2-(piperidin-3-ylamino)pyrimidin-4-yl)pyridin-2-yl)oxy)phenyl)-1-phenylmethanesulfonamide hydrochloride]: the IC50 amounted to 6.6 nM.

For the compound `Cc1cc(NC(=O)C2CC2)cc(F)c1Oc1ncccc1-c1ccnc(N[C@H]2CC[C@H](N)CC2)n1` [Compound 120, N-(4-((3-(2-(((1r,4r)-4-aminocyclohexyl)amino)pyrimidin-4-yl)pyridin-2-yl)oxy)-3-fluoro-5-methylphenyl)cyclopropanecarboxamide hydrochloride], the IC50 came to 110 nM.

Regarding `O=S(=O)(Cc1ccc(Cl)cc1)Nc1ccc(Oc2ncccc2-c2ccnc(N[C@H]3CCCNC3)n2)c(F)c1F` [Compound 213, (S)-1-(4-chlorophenyl)-N-(2,3-difluoro-4-((3-(2-(piperidin-3-ylamino)pyrimidin-4-yl)pyridin-2-yl)oxy)phenyl)methanesulfonamide], the IC50 was found to be 5.9 nM.

Compound `C[C@@]1(F)CNC[C@@H](Nc2nccc(-c3cccnc3Oc3cc(F)c(NS(=O)(=O)Cc4c(F)cccc4F)c(F)c3F)n2)C1` [Compound 282, 1-(2,6-Difluorophenyl)-N-(2,3,6-trifluoro-4-((3-(2-(((3S,5S)-5-fluoro-5-methylpiperidin-3-yl)amino)pyrimidin-4-yl)pyridin-2-yl)oxy)phenyl)methanesulfonamide] showed a half-maximal inhibitory concentration (IC50) of 0.27 nM.

These data come from patent publication US12071425B2 (Genentech, Inc., priority 2018, dated 2024).
